Reference: US20020110523A1, “Methods for screening or monitoring the risk of cardiovascular disease relating to sex steroid compound or composition intake and methods for screening sex steroid compound” (priority 1996, published 2002)
Marks after values point to notes of the source that are not given here.

Columns and labels:
[1] = review of human studies; cited from earlier work
[2] = among third-generation OCs; cited from earlier work
[3] = test system: C-reactive protein (CRP); experiment: CRP in postmenopausal women with type 2 diabetes on estrogen replacement therapy, randomized placebo-controlled trial (Example III); type: in vivo, human
[4] = test system: ceruloplasmin; details: FIG. 1 of Ruokonen and Kaar; cited from earlier work
[5] = test system: SHBG, cortisol binding protein (CBP), ceruloplasmin and HDL-cholesterol; details: cited from earlier work; for estrogenic effect: in man; for androgenic activity: on the basis of a change in SHBG and HDL cholesterol levels

Row | SMILES | androgenicity and antiestrogenic potential [1] | estrogenic effect [5] | androgenic activity [5] | also measured
1 | C#C[C@]1(OC(C)=O)CC[C@H]2[C@@H]3CCC4=CC(=NO)CC[C@@H]4[C@H]3CC[C@@]21CC (mixture of isomers) [norgestimate] | minimal amounts of androgenicity and antiestrogenic potential | – | – | androgenic profile in vitro [2]: least androgenic profile
2 | C[C@]12CC[C@@H]3c4ccc(O)cc4CC[C@H]3[C@@H]1CC[C@@H]2O [17 beta estradiol] | – | – | – | effect on CRP ([3]; 2 mg/d orally for six weeks): induced an increase in CRP; CRP-values, Median ([3]; 6 weeks, 2 mg/d orally, p = 0.0027 compared to pretreatment): 6.70#; CRP-values, Median ([3]; Pretreatment (baseline of the treatment group), postmenopausal women with type 2 diabetes): 4.13
3 | C#C[C@]1(O)CC[C@H]2[C@@H]3CCC4=CCCC[C@@H]4[C@H]3C(=C)C[C@@]21CC [desogestrel] | minimal amounts of androgenicity and antiestrogenic potential | no estrogenic effect | androgenic activity | effect on ceruloplasmin concentration [4]: does not induce this effect or does so to an insufficient degree; androgenicity compared among the three compounds ([5]; desogestrel, levonorgestrel and lynestrenol compared): least androgenic
4 | C#C[C@]1(O)C=C[C@H]2[C@@H]3CCC4=CC(=O)CC[C@@H]4[C@H]3CC[C@@]21CC [gestodene] | minimal amounts of androgenicity and antiestrogenic potential | – | – | –
5 | C#C[C@]1(O)CC[C@H]2[C@@H]3CCC4=CCCC[C@@H]4[C@H]3CC[C@@]21C [lynestrenol] | – | weakly estrogenic | androgenic activity | –
